From US6713504B2, “Antifungal molecule 2-(3,4-dimethyl-2,5-dihydro-1H-pyrrol-2-yl)-1-methylethyl pentanoate” (Council of Scientific & Industrial Research, priority 2002, dated 2004) come the findings set out here.

As a reminder, the MIC is the lowest concentration that inhibits growth of the organism.

Converted amounts (≈) assume the structure as drawn.

Test [1] has as its system A. fumigatus. Briefly: Disc diffusion assay. Format: cell-based. To be noted: concentration developing zone of inhibition of 6.0-mm diameter. The procedure: (§1) Pathogenic strains of fungi were obtained from the Mycology Department of Vallabhbhai Patel Chest Institute, Delhi. All the strains were grown on Sabouraud dextrose agar at 37° C. The conidia form these cultures were harvested and suspended in Sabouraud maltose broth. The number of conidia was counted using haemocytometer and their number in the suspension was adjusted to as per need of the experiment.
The disc diffusion test was performed as per described in the section of details of invention. Amphotericin B 1.25 μg/disc was used in assay as positive control standard drug. Additional discs impregnated with equivalent amount of solvent were also used in the assay as negative controls (FIG. 5).
The potency of the compound was determined with the help of standard curve constructed using amphotericin B as standard drug against A. fumigatus. Standard curve was prepared according to method given in the Indian Pharmacopoeia. The corrected values of diameter of zone of inhibition along with lowest and highest values were determined. These values were plotted on semilog paper to prepare standard curve. The value of diameter of zone of inhibition obtained for compound was put into the standard curve and corresponding dose producing the effect equivalent to amphotericin B was determined to find out the potency of the compound (FIG. 6).
On the technique in general: A growth-free zone around the sample is the usual read-out of agar diffusion tests.

Test [2] has as its system A. flavus. Briefly: Microbroth dilution assay. Also noted: key to Activity of the compound against Aspergillus sp. after 48 hrs.: +ve if medium appeared clear with out any growth of fungi; −ve if growth was there. Format: cell-based. Here is the method: as §1
(§2) The antifungal susceptibility of the fungi to various fractions or the purified component was assayed by the microbroth dilution method (Forthergill A. W. and McGough A. W., 1995, Clin. Microbiol. Procedure Handbook. In Vitro susceptibility Testing of Yeast, 5.15.1-5.15.15). The fungal spores were harvested from 96-h cultures and their number adjusted to 1×10^6 per ml. The Sabouraud Dextrose medium was dissolved in glass double distilled water and autoclaved at 10 psi for 15 min. 90-μl medium was added into the wells of cell culture plates. The different concentrations of the extract, fractions or the purified compound were prepared in duplicate wells and then the wells were inoculated with 10 μl of spore suspension. The plates were incubated at 37° C. and examined macroscopically after 48 h for the growth of fungal mycelia. The activity was represented as −ve if growth was there and +ve if medium appeared clear with out any growth of fungi.
(§3) The antifungal susceptibility of the fungi to the purified compound was assayed by the microbroth dilution method. The different concentrations of the purified compound ranging from 21.87 to 350 μg/ml were prepared in duplicate wells by twofold dilution method. The test was done as described above.

The subject of test [3] is A. fumigatus. In words: Microbroth dilution assay. The class given is cell-based. Also on record: key to Activity of the compound against Aspergillus sp. after 48 hrs.: +ve if medium appeared clear with out any growth of fungi; −ve if growth was there. Here is the method:
as §1, §2, §3

In test [4] the test system is A. niger. Briefly: Microbroth dilution assay. Also noted: key to Activity of the compound against Aspergillus sp. after 48 hrs.: +ve if medium appeared clear with out any growth of fungi; −ve if growth was there. Format: cell-based. Here is the method: as §1, §2, §3
Background: Dilution methods test growth across graded concentrations, often in twofold steps.

Test [5] concerns A. fumigatus infection. Briefly: In vivo efficacy (survival) in mice model of aspergillosis. To be noted: 7 doses. Also on record: species or system Balb/C mice. Here is the method: The mice model of aspergillosis described by Dixon et al (1989), was used to study the effects of compound on in vivo infection of A. fumigatus.
The animals were housed in the micro-barrier cages on sterile bedding and fed ad libitum water and food. The mice were divided into 6 groups and each group contained 8-10 animals. The mice were infected experimentally with A. fumigatus. Three days prior to infection with conidia, mice were injected subcutaneously with 3 doses (250.0 mg/kg/day) of cortisone acetate in 400.0 μl of PBS. On the infection day, each mouse received 2×10^7 conidia by nasal instillation of a single droplet of conidial suspension.
A. fumigatus (190/96) isolate was grown on Sabouraud dextrose agar plates at 37° C. for 4 days. The conidia were collected from the culture plates using PBS (pH 7.2) containing 0.05% Tween 80 (Sigma Chemicals) and the suspension was filtered through sterile glass wool. The conidia were pelleted by centrifugation at 2000 rpm and re-suspended in PBS, pH 7.2. The number of conidia was counted and adjusted to 1×10^8 conidia/ml. The viability of the conidia was determined by plating the dilutions of suspensions on Sabouraud dextrose agar.
The purified compound (metelatropinyl ester) isolated from the D. metel was administered orally in the concentration ranging from 0.0, 25.0 50.0 100.0 200.0 and 400.0 mg/kg body weight to the mice infected experimentally with A. fumigatus.
The dosing of the animals (cortisone treated and challenged) with compound in 6 different groups was initiated within 30 min after challenge with A. fumigatus conidia.
Group I: The mice were treated orally with 7 doses of 25.0 mg/kg/day of the compound.
Group II: The animals infected with A. fumigatus conidia were given 50.0 mg/kg/day of the compound for 7 days orally.
Group III: The animals in this group were given 7 oral doses of 100.0 mg/kg/day of the compound.
Group IV: In this group of animals, 7 oral doses of the compound (200.0 mg/kg/day) were given.
Group V: The animals of this group were treated with 7 doses of 400.0 mg/kg/day orally over a period of 7 days.
Group VI: The animals of this group acted as control and were treated orally with 7 doses of 400 μl PBS containing solvent.
The animals were housed in properly labeled cages and kept under close watch for weight loss and the mortality. The survival rate over a period of 10 days was calculated and the fungal burden in survivors determined (Clemons and Stevens, 1994).
The Balb/C mice of 6-8 weak of age of either sex, weighing 15-20 g, were housed in micro-barrier cages on sterile bedding and fed ad libitum water and food. The animals were divided into 6 groups and each group contained 8-10 mice.

In the case of `CCCCC(=O)OC(C)CC1NCC(C)=C1C` (stereo not shown) [PC-1, 2-(3,4-dimethyl-2,5-dihydro-1H-pyrrol-2-yl)-1-methylethyl pentanoate], the “MIC by disc diffusion assay” value in test [1] was determined as 5 μg/disc; in test [1] (listed as antifungal lead molecule), 5.0 μg/disc. The “Activity of the compound against Aspergillus sp. after 48 hrs.” value in test [2] (21.87 μg/ml), in test [2] (43.75 μg/ml), in test [3] (21.87 μg/ml), in test [3] (43.75 μg/ml), in test [4] (21.87 μg/ml) and in test [4] (43.75 μg/ml) was “−” in each case. The MIC in test [2] (Aspergillus flavus, no visual growth, 48 h) worked out at 87.5 µg/mL (≈ 366 µM); in test [3] (Aspergillus fumigatus, no visual growth, 48 h), 87.5 µg/mL (≈ 366 µM); in test [4] (Aspergillus niger, no visual growth, 48 h), 87.5 µg/mL (≈ 366 µM). Moreover, the “survived up to 10th day” value is given as 10% in test [5] (25.0 mg/kg body weight oral, 1 out of 10); 12.5% in test [5] (50.0 mg/kg body weight oral, 1 out of 8); 33.3% in test [5] (100.0 mg/kg body weight oral, 3 out of 9); 44.4% in test [5] (200.0 mg/kg body weight oral, 4 out of 9); 80% in test [5] (400.0 mg/kg body weight oral, 8 out of 10).
